The source of these data is patent US7220824B1, “Integrin-mediated drug targeting” (Bayer Aktiengesellschaft, priority 2000, dated 2007).

In one assay the test system is B16F10. Briefly: Growth inhibition test (MTT), cytotoxic action on tumour cell lines. In kind it is cell-based. The following applies: Mus musculus, B16-F10, 144 h, read-out: IC50 values of the cytotoxic action on tumour cell lines, B16F10. As to the method: (§1) The human large intestine cell lines SW 480 and HT29 (ATCC No. CCL 228 and HTB38), the human breast cell lines MDA-MB 231, MCF-7 and BT20 (ATCC No. HTB-, 26, 22 and 23) and the mouse melanoma cell line B16F 10 (CRL 6475) were grown to confluence in Roux dishes in RPMI 1640 medium with addition of 10% FCS. They were then trypsinized and taken up in RPMI plus 10% FCS to a cell count of 50,000 cells or, for B16F10, 20,000 cells per ml. 100 μl of cell suspension/well were added to a 96 microwell plate and incubated at 37° C. for 1 day in a CO2 incubator. A further 100 μl of RPMI medium and 1 μl of DMSO were then added with the test substances. The growth was checked after day 6. For this, 25 μl of MTT solution (3-(4,5-dimethylthiazol-2-yl)-2,5-diphenyltetrazolium bromide) was added to each well at a starting concentration of 5 mg/ml of H2O. The plate was incubated at 37° C. for 5 hours in a CO2 incubator. The medium was then aspirated and 100 μl of i-propanol/well were added. After shaking with 100 μl of H2O for 30 min, the extinction was measured at 595-nm using a Multiplate Reader (BIO-RAD 3550-UV).
(§2) The cytostatic action is indicated in Table 2 as an IC50 value, in each case for the individual cell lines.

For the next assay, the system named is MDA-MB 231. The assay is described as above. The following applies: Homo sapiens, MDA-MB-231, 144 h, read-out: IC50 values of the cytotoxic action on tumour cell lines, MDA-MB 231. In kind it is cell-based. The procedure:
as §1, §2

The test system of the next assay is HT 29. The description is as above. The assay is classed as cell-based. The following applies: Homo sapiens, HT-29, 144 h, read-out: IC50 values of the cytotoxic action on tumour cell lines, HT 29. As to the method:
as §1, §2

A further assay concerns SW480. The assay is described as above. In kind it is cell-based. The following applies: Homo sapiens, SW480, 144 h, read-out: IC50 values of the cytotoxic action on tumour cell lines, SW480. The procedure:
as §1, §2

The next assay relates to BT20. The description is as above. In kind it is cell-based. The following applies: Homo sapiens, BT-20, 144 h, read-out: IC50 values of the cytotoxic action on tumour cell lines, BT20. The procedure: as §1, §2
The next assay relates to MCF7. The assay is described as above. The assay is classed as cell-based. The following applies: Homo sapiens, MCF7, 144 h, read-out: IC50 values of the cytotoxic action on tumour cell lines, MCF7. As to the method:
as §1, §2

Assay [1] has as its target T1, αvβ3 receptor (αvβ3 from human A375 cells) (Homo sapiens, UniProt P05106+P06756).
T1 construct: αvβ3 from human A375 cells was purified analogously to a procedure which was described by Wong et al; endogenous in cells; host or cells: human A375 cells; the receptor was purified from the cells and used detergent-solubilised (n-octyl-glucopyranoside)
Briefly: αvβ3 binding test (echistatin displacement, WGA SPA beads). The procedure:
αvβ3 from human A375 cells was purified analogously to a procedure which was described by Wong et al. (Molecular Pharmacology, 50, 529–537 (1996)). In each case, 10 μl of αvβ3 (5 ng) in TBS pH 7.6, 2 mM CaCl2, 1 mM MgCl2, 1% n-octyl-glucopyranoside (Sigma); 10 μl of test substance in TBS pH 7.6, 0.1% DMSO and 45 μl of TBS pH 7.6, 2 mM CaCl2, 1 mM MgCl2, 1 mM MnCl2 were incubated at room temperature for 1 h. In each case, 25 μl of WGA SPA beads (Amersham, 4 mg/ml) and 10 μl of echistatin ([…], Amersham, chloramine-T labelled) were then added. After 16 hours at room temperature, the samples were measured in a scintillation measuring apparatus (Wallac 1450).

The mark [2] stands for this setting: αvβ3 purified from human A375 cells, labelled echistatin, read-out: IC50 values of the binding to the αvβ3 receptor.

Like-named read-outs stand apart in the source and are kept apart here.

T1 sequence (P06756 31-889 limits assumed): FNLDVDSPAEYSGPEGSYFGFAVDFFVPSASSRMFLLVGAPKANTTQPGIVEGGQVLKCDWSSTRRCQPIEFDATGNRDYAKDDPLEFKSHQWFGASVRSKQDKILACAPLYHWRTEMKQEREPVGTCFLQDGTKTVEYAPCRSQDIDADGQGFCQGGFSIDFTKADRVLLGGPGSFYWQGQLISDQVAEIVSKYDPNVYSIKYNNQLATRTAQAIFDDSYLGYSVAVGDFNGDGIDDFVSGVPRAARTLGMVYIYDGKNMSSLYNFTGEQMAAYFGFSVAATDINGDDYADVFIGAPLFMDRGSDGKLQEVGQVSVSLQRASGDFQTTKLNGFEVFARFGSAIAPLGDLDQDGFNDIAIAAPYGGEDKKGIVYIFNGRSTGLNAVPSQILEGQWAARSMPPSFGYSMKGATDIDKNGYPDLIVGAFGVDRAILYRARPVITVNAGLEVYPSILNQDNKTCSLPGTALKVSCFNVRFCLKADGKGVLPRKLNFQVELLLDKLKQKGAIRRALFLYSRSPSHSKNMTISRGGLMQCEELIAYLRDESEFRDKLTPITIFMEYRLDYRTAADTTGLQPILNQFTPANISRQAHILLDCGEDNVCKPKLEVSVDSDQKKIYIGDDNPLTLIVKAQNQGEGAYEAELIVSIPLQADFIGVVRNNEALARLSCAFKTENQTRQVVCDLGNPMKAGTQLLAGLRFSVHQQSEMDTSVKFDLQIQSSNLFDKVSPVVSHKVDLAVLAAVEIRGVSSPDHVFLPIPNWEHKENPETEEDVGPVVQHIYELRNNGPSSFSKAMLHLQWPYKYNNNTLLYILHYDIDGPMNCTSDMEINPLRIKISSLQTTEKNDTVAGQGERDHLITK
T1 sequence (P06756 891-1048 partner limits assumed): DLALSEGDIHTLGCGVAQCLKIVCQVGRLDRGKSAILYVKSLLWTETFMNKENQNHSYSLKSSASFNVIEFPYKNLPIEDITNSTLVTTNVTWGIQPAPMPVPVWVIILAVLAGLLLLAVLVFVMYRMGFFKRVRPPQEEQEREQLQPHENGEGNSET
T1 sequence (P05106 27-788): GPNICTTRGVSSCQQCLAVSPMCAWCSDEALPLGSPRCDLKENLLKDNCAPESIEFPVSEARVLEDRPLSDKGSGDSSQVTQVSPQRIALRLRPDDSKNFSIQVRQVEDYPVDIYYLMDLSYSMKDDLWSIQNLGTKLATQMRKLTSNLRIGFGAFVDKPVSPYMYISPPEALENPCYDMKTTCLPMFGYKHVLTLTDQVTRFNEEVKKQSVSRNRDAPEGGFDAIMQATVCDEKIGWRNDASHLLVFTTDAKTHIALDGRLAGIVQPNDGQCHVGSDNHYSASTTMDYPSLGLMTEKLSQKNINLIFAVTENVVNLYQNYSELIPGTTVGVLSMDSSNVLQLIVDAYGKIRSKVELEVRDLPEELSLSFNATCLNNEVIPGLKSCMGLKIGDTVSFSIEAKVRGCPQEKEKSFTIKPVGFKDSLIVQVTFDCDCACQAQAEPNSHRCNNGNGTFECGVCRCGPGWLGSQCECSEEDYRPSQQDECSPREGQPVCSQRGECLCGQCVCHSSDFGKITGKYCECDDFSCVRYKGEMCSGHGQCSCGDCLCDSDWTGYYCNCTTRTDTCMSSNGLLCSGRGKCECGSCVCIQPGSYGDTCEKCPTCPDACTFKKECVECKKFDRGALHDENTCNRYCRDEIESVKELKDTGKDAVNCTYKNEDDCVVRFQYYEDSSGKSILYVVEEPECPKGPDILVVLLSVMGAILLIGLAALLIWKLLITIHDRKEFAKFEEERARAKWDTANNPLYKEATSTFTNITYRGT

For the compound `CC[C@@]1(OC(=O)C(NC(=O)C(Cc2cnc[nH]2)NC(=S)Nc2cccc(-c3ccc(C[C@H](NS(=O)(=O)CC45CCC(CC4=O)C5(C)C)C(=O)O)cc3)c2)C(C)C)C(=O)OCc2c1cc1n(c2=O)Cc2cc3ccccc3nc2-1` (some centres unmarked) [Example 2.4], the 50% inhibitory concentration (IC50) in the assay on B16F10 amounted to 500 nM; in the assay on MDA-MB 231 it was 400 nM; in the assay on HT 29, 300 nM; in the assay with SW480 it was 400 nM; with BT20 it was 1500 nM; in the assay on MCF7, 800 nM. In addition, the IC50 in assay [1] (setting [2]) amounted to 110 nM.

Turning to `CC[C@@]1(OC(=O)[C@@H](NC(=O)Nc2cccc(-c3cccc(S(=O)(=O)NC(CC(=O)O)c4ccccc4)c3)c2)C(C)C)C(=O)OCc2c1cc1n(c2=O)Cc2cc3ccccc3nc2-1` (some centres unmarked) [Example 2.13], the IC50 in the assay with B16F10 was determined as 20 nM; in the assay with MDA-MB 231, 20 nM; in the assay with HT 29, 15 nM; in the assay on SW480 it was 15 nM; with BT20 it was 5 nM; in the assay with MCF7 it was 10 nM. Also, in assay [1] (setting [2]), the half-inhibitory concentration (IC50) was 97 nM.

In the case of `CCC1(OC(=O)[C@@H](NC(=O)Nc2cccc(-c3ccc(S(=O)(=O)NC(CC(=O)O)c4ccccc4)cc3)c2)C(C)C)C(=O)OCc2c1cc1n(c2=O)Cc2cc3ccccc3nc2-1` (some centres unmarked) [Example 2.12], the IC50 worked out at 20 nM in the assay with B16F10; 10 nM with MDA-MB 231; 9 nM in the assay with HT 29; 20 nM in the assay with SW480; 8 nM with BT20; 10 nM with MCF7. Also, the IC50 in assay [1] (setting [2]) turned out to be 127 nM.

Consider `CC[C@@]1(OC(=O)[C@@H](NC(=O)[C@H](Cc2c[nH]cn2)NC(=S)Nc2ccc(S(=O)(=O)NC(CC(=O)O)c3cccc(NS(=O)(=O)c4cccc(NC(=N)N)c4)c3)cc2)C(C)C)C(=O)OCc2c1cc1n(c2=O)Cc2cc3ccccc3nc2-1` (some centres unmarked) [Example 3.2], for which the IC50 turned out to be 1000 nM with B16F10; 200 nM with MDA-MB 231; 200 nM with HT 29; 400 nM in the assay with SW480; 200 nM in the assay on BT20; 200 nM in the assay on MCF7. The compound also gave a 50% inhibitory concentration (IC50) in assay [1] of 45 nM.

In the case of `CCCNC(=O)Nc1cccc(S(=O)(=O)Nc2cccc(C(CC(=O)O)NS(=O)(=O)c3ccc(NC(=S)N[C@@H](Cc4c[nH]cn4)C(=O)N[C@H](C(=O)O[C@]4(CC)C(=O)OCc5c4cc4n(c5=O)Cc5cc6ccccc6nc5-4)C(C)C)cc3)c2)c1` (some centres unmarked) [Example 3.12], the half-maximal inhibitory concentration (IC50) in the assay on B16F10 was found to be 250 nM; in the assay on MDA-MB 231 it was 150 nM; in the assay on HT 29, 150 nM; with SW480, 300 nM; with BT20, 150 nM; with MCF7, 100 nM. For the same compound, the IC50 in assay [1] came to 390 nM.

`CC[C@@]1(OC(=O)[C@@H](NC(=O)[C@H](Cc2cnc[nH]2)NC(=S)Nc2ccc(CC(NS(=O)(=O)c3cccc(-c4cccc(NC(=O)Nc5nc6ccccc6[nH]5)c4)c3)C(=O)O)cc2)C(C)C)C(=O)OCc2c1cc1n(c2=O)Cc2cc3ccccc3nc2-1` (some centres unmarked) [Example 3.9]: the half-maximal inhibitory concentration (IC50) is 1000 nM in the assay on B16F10; 60 nM in the assay on MDA-MB 231; 60 nM in the assay on HT 29; 400 nM in the assay with SW480; 500 nM with BT20; 150 nM in the assay with MCF7. The IC50 in assay [1] is 220 nM.

As to `CC[C@@]1(OC(=O)C(NC(=O)C(CCCCN)NC(=S)Nc2cccc(-c3ccc(C[C@H](NS(=O)(=O)CC45CCC(CC4=O)C5(C)C)C(=O)O)cc3)c2)C(C)C)C(=O)OCc2c1cc1n(c2=O)Cc2cc3ccccc3nc2-1` (some centres unmarked) [Example 2.5], the IC50 stood at 400 nM in the assay with B16F10; 300 nM in the assay with MDA-MB 231; 300 nM in the assay with HT 29; 200 nM in the assay with SW480; 400 nM in the assay with BT20; 300 nM with MCF7. The half-maximal inhibitory concentration (IC50) in assay [1] (setting [2]) turned out to be 190 nM.

On to `CCCNC(=O)Nc1cccc(-c2ccc(CC(NC(=O)N[C@H](C(=O)O[C@]3(CC)C(=O)OCc4c3cc3n(c4=O)Cc4cc5ccccc5nc4-3)C(C)C)C(=O)O)cc2)c1` (some centres unmarked) [Example 3.14], for which the IC50 stood at 200 nM in the assay with B16F10; 150 nM with MDA-MB 231; 100 nM in the assay on HT 29; 150 nM with SW480; 100 nM in the assay on BT20; 80 nM in the assay on MCF7. For the same compound, the concentration for half-maximal inhibition (IC50) in assay [1] (setting [2]) was determined as 21 nM.

On to `CC[C@@]1(OC(=O)[C@@H](NC(=O)[C@H](Cc2cnc[nH]2)NC(=S)Nc2cccc(C(CC(=O)O)NS(=O)(=O)c3cccc(-c4cccc(NC(=O)Nc5nc6ccccc6[nH]5)c4)c3)c2)C(C)C)C(=O)OCc2c1cc1n(c2=O)Cc2cc3ccccc3nc2-1` (some centres unmarked) [Example 3.6], for which the IC50 in the assay on B16F10 was 2000 nM; with MDA-MB 231 it was 400 nM; in the assay with HT 29, 300 nM; with SW480, 400 nM; with BT20 it was 1000 nM; in the assay with MCF7 it was 400 nM. Further, in assay [1], the 50% inhibitory concentration (IC50) was 22 nM.

Take `CC[C@@]1(OC(=O)[C@@H](NC(=O)CC[C@H](NC(=O)CC(NC(=O)CNC(=O)c2cccc(NC(=N)N)c2)c2ccccc2)C(=O)O)C(C)C)C(=O)OCc2c1cc1n(c2=O)Cc2cc3ccccc3nc2-1` (some centres unmarked) [Example 1.2]: the concentration for half-maximal inhibition (IC50) in the assay on B16F10 amounted to 4000 nM; with MDA-MB 231, 20 nM; with HT 29, 500 nM; in the assay with SW480, 600 nM; in the assay on BT20, 100 nM; with MCF7, 60 nM. In assay [1] (setting [2]), the IC50 was determined as 679 nM.

With `CC[C@@]1(OC(=O)[C@@H](NC(=O)[C@H](CCCCN)NC(=S)Nc2cccc(C(=O)NCC(=O)NC(CC(=O)O)c3ccccc3)c2)C(C)C)C(=O)OCc2c1cc1n(c2=O)Cc2cc3ccccc3nc2-1` (some centres unmarked) [Example 2.1], the IC50 in the assay on B16F10 was 400 nM; with MDA-MB 231, 60 nM; in the assay on HT 29 it was 90 nM; in the assay on SW480, 150 nM; with BT20 it was 100 nM; in the assay on MCF7, 70 nM. Besides, in assay [1] (setting [2]), the half-inhibitory concentration (IC50) turned out to be 1450 nM.

For the compound `CC[C@@]1(OC(=O)[C@@H](NC(=O)[C@H](Cc2cnc[nH]2)NC(=S)Nc2ccc(CC(NS(=O)(=O)c3cc(-c4cccc(NC(=O)Nc5nc6ccccc6[nH]5)c4)ccc3OC)C(=O)O)cc2)C(C)C)C(=O)OCc2c1cc1n(c2=O)Cc2cc3ccccc3nc2-1` (some centres unmarked) [Example 3.7], the IC50 with B16F10 amounted to 800 nM; in the assay on MDA-MB 231 it was 300 nM; in the assay with HT 29, 200 nM; with SW480, 400 nM; in the assay on BT20, 600 nM; with MCF7, 400 nM. The same compound returned a half-inhibitory concentration (IC50) in assay [1] of 111 nM.

With `CC[C@@]1(OC(=O)[C@@H](NC(=O)[C@H](CCCCNC(=O)OCC2c3ccccc3-c3ccccc32)NC(=O)Nc2cccc(-c3cccc(S(=O)(=O)NC(CC(=O)O)c4ccccc4)c3)c2)C(C)C)C(=O)OCc2c1cc1n(c2=O)Cc2cc3ccccc3nc2-1` (some centres unmarked) [Example 2.9], the IC50 worked out at 300 nM in the assay with B16F10; 700 nM with MDA-MB 231; 700 nM in the assay on HT 29; 1000 nM with SW480; 1500 nM in the assay on BT20; 300 nM in the assay on MCF7. This compound gave an IC50 in assay [1] of 236 nM.

Consider `CCC1(OC(=O)[C@@H](NC(=O)[C@H](Cc2c[nH]cn2)NC(=O)Nc2cccc(-c3ccc(S(=O)(=O)NC(CC(=O)O)c4ccccc4)cc3)c2)C(C)C)C(=O)OCc2c1cc1n(c2=O)Cc2cc3ccccc3nc2-1` (some centres unmarked) [Example 2.11], for which the half-maximal inhibitory concentration (IC50) in the assay with B16F10 is 800 nM; in the assay with MDA-MB 231, 600 nM; in the assay on HT 29, 400 nM; in the assay with SW480, 600 nM; in the assay with BT20, 400 nM; in the assay on MCF7, 500 nM. In addition, in assay [1] (setting [2]), the IC50 worked out at 197 nM.

Broadly, the IC50 is the point on the concentration scale where inhibition reaches its midpoint.
